Data on 6 compounds can be found in patent publication US20080269259A1, “Regulation of Autophagy and Cell Survival” (THE TRUSTEES OF THE UNIVERSITY OF PENNSYLVANIA, priority 2005, published 2008).

Usually IC50 stands for the concentration needed to halve the response being measured.

Data set [1] has as its system Myc/p53ER^TAM/GFP-LC3 cells. Kind of data set: GFP-LC3 fluorescence imaging. It counts as cell-based, mice. The conditions noted are these: hTAM 250 mM, CQ 5 pM as printed; 48 hours.
Description: For GFP-LC3 fluorescence imaging, Myc/p53ER^TAM/IGFP-LC3 cells (see below) were exposed to the indicated treatments and fixed with 4% paraformaldehyde for 30 minutes at room temperature, washed three times and centrifuged onto slides. DAPI counterstain was used to identify cells with intact nuclei. All fluorescence imaging was performed and digitally captured at 100× magnification on a Nikon Eclipse E800 fluorescent microscope.
In data set [2] the test system is Bax^−/−Bak^−/− cells. Kind of data set: ATP levels in growth factor-deprived cells. It counts as cell-based, mice. The conditions noted are these: IL-3 deprived cells; for ATP levels: 8 hours after addition of drug. The procedure:
The conversion of 5-^3H-glucose to ^3H2O was used to measure the glycolytic rate. The level of ATP was measured as described previously.

Data set [3] concerns Bax^−/−Bak^−/− cells. Kind of data set: Viability of IL-3 dependent Bax−/−Bak−/− cells (propidium iodide exclusion). It counts as cell-based, mice. To be noted: for effect on survival of cells grown in the presence of IL-3 / death of the cells in the cultures: 5 mM 3-MA or 10 μM CQ; for effect on survival of cells grown in the presence of IL-3: IL-3 present; for death of the cells in the cultures: by 48 hours, cells deprived of growth factor for 6 weeks. The procedure:
Immortalized IL-3 dependent cells were obtained from the bone marrow of two independent Bax^−/−Bak^−/− mice using previously established protocols. Subsequent experiments using these cells were performed in complete media consisting of: RPMI 1640 medium (Invitrogen) supplemented with 10% heat inactivated fetal bovine serum (Gemini), 10 units/mL penicillin/streptomycin and 2 mM L-glutamine (Invitrogen), 50 μm β-mercaptoethanol (Sigma) and 10 mM HEPES (Invitrogen). For cells grown in the presence of IL-3, the complete medium was supplemented with 3.5 ng/mL of murine recombinant IL-3 (BD Pharmingen). For IL-3 withdrawal experiments, cells were washed three times in medium without IL-3 and serum. After the final wash, cells were resuspended in complete medium without IL-3. Medium for cells cultured in the absence of IL-3 was replaced with fresh complete medium without IL-3 every 10 days. […] Cell size and number was assessed by using a Coulter Z2 particle analyzer. For readdition experiments, cells grown in the absence of IL-3 at the indicated time points were pelleted by centrifugation and resuspended in complete media containing 3.5 ng/mL IL-3. The FL5.12 cell line was maintained in complete media supplemented with 0.35 ng/mL IL-3. For measurement of mitochondrial membrane potential, cells were incubated for 30 minutes with 50 nM of tetramethyl rhodamine ethyl ester (TMRE; Molecular Probes) in the presence or absence of 50 μM CCCP (Sigma). Viability was performed by incubating cells with annexin V conjugated fluorescein isothiocyanate (BD Pharmingen) in buffer containing 1 μg/mL propidium iodide (Molecular Probes) followed by FACS analysis. DNA fragmentation assay was performed as previously described.

In a further data set the test system is LC3. As to the kind of experiment: LC3 immunofluorescence staining of autophagosomes. It counts as cell-based, mice. To be noted: cells without IL-3 for 6 weeks, 18 hours of 5 mM 3-MA or 10 μM CQ. The procedure: Antibodies (all 1:1000 dilution) used were: GLUT1 (Research Diagnostic Inc.), calreticulin (StressGen), STAT3 (Cell Signalling), actin (Sigma), LC3 (gift from T. Yoshimori), ATG5 (gift from N. Mizushima), Bax (Santa Cruz) and Bak (Upstate Technologies). For immunofluorescence staining, cells were fixed in 4% paraformaldehyde and permeabilized with 0.1% Triton X-100, washed 3 times (PBS containing 0.01% Triton X-100 and 10% FBS), followed by incubation with […]. […] Images were captured using a Zeiss 510 confocal microscope. For surface analysis, cells were fixed in 4% paraformaldehyde, stained with 1:100 biotin-anti-IL-3 alpha chain receptor (BD Pharmingen) and a 1:100 dilution of streptavidin conjugated fluorescein isothiocyanate (BD Pharmingen) followed by FACS analysis.

The subject of data set [4] is Myc/p53ER^TAM lymphomas. Kind of data set: Electron microscopy and quantification of autophagosomes in tumors. It counts as in vivo, mice. The conditions noted are these: 24 hours after initiation of TAM/PBS compared to 48 hours of PBS alone; p<0.0005. From the text: Cells were postfixed with 2% osmium tetroxide followed by an increasing gradient dehydration step using ethanol and propylene oxide. […] Data is presented as mean ±SD.

Another data set has as its system cleaved caspase 3. As to the kind of experiment: Western blot of cleaved caspase 3 in tumor lysates. It is filed as in vivo, mice. To be noted: lysates obtained at 48 hours; data not shown. The source says: Cultured cells were lysed in RIPA buffer. Tumor lysates were obtained by manual agitation of tumor tissue and lysis in RIPA. Lysates were standardized for protein content and resolved by SDS-PAGE on 14% NuPAGE gels (Invitrogen, St Louis, Mo.). Nitrocellulose blots were probed with antibodies against cleaved caspase 3 (rabbit monoclonal antibody; […]) (Cell Signaling, Beverly, Mass.); anti-actin (mouse monoclonal antibody; 1:10,000) (Sigma, St. Louis, Mo.); anti-ATG5 (rabbit polyclonal antibody; 1:2000) (gift from N. Mizushima).
For orientation: In western blotting, separated proteins are transferred to a membrane and probed.

Data set [5] relates to Myc/p53ER^TAM lymphomas. As to the kind of experiment: Myc/p53ER^TAM lymphoma tumor growth, regression and recurrence in syngeneic mice. It counts as in vivo. How it is done:
All experiments were performed in accordance with approved animal safety protocols. All experiments were carried out using 8-10 week old C57BL/6X129F1 mice obtained from The Jackson Laboratory (Bar Harbor, Me.). Bone marrow cell harvest and production of bone marrow-derived neoplasms followed the protocol previously described. After primary tumor formation, tumor cells were harvested in ice cold PBS by passage through a […] nylon mesh (BD Bioscience, Bedford, Md.) and expanded in vivo by subcutaneous injection into the flanks of syngeneic mice. For tissue analysis, all animals were sacrificed individually by CO2 asphyxiation and tissue was harvested immediately. Tumors were harvested in ice cold PBS. For each tumor, sections of visually viable tumor tissue were fixed in 10% formalin for preparation of paraffin-embedded sections, glutaraldehyde for electron microscopy (see below). Tumor cell lysates were achieved through manual agitation of remaining tumor tissue in RIPA buffer.
(§1) For tamoxifen (TAM) treatment, the hormone powder (Sigma, St. Louis) was dispersed, via sonication, in peanut oil (Sigma) at a concentration of 10 mg/mL. The administration of TAM was done via daily IP injections at the dose of 1 mg per mouse.
(§2) 4-hydroxytamoxifen (hTAM) (Sigma) was dissolved in ethanol. Cyclophosphamide (Sigma) was dissolved in PBS. Tumors were measured on a daily basis using calipers and tumor volume was calculated using the formula: (mm^3)=AxBx[A+B]/2

The subject of data set [6] is Myc/p53ER^TAM lymphoma cells. Kind of data set: In vitro growth of Myc/p53ER^TAM lymphoma cells (cell number). It is filed as cell-based, mice. The conditions noted are these: Mus musculus, 96 h; cell number measured on day 4, medium changed daily, single agent; read-out: IC50, impairment of lymphoma cell growth. The source says: For all in vitro experiments media+supplements and drugs treatments were changed daily.

Data set [7] can be described thus: Observed toxicity in treated tumor-bearing mice. How it is done: as §1, §2

With 4-hydroxytamoxifen [hTAM], the “punctate GFP-LC3 fluorescence” value in [1] is recorded as “increased number of punctate LC3 associated vesicles”.

In the case of `Cn1cnc(N)c2ncnc1-2` [3-MA, 3-methyladenine], in the data set with Bax^−/−Bak^−/− cells [2], the ATP levels entry is given as “dramatic decline in ATP levels”. Besides, in the data set with Bax^−/−Bak^−/− cells [3], the “effect on survival of cells grown in the presence of IL-3” value is on record as “no significant effect” and the “death of the cells in the cultures” value turned out to be 72%. In addition, in the data set with LC3, the “number of autophagosomes (LC3 redistribution from punctate to diffuse staining)” value was “reduction in the number of autophagosomes”.

In the case of `COC(=O)C(C)=O` [methyl pyruvate], the “effect on ATP decline caused by 3-MA or CQ” value in the data set with Bax^−/−Bak^−/− cells [2] (10 mM MP, 8 hours) is listed as “could be suppressed”. Moreover, the “effect on death observed in response to 3-MA and CQ” value with Bax^−/−Bak^−/− cells [3] (10 mM methyl pyruvate added at the time of 3-MA or CQ treatment, IL-3 deprived 6 weeks) is “suppressed the death”.

As for `CC/C(=C(\c1ccccc1)c1ccc(OCCN(C)C)cc1)c1ccccc1` [TAM/PBS, tamoxifen], in the data set on Myc/p53ER^TAM lymphomas [4], the “increase of percentage of tumor cells with autophagosomes” value amounted to 30 fold. The “cleaved caspase 3 in tumor lysates” value with cleaved caspase 3 was “absent”. Further, in the data set with Myc/p53ER^TAM lymphomas [5] (TAM/CQ and TAM/HCQ pooled in one figure, p<0.005), the “mice with complete clinical regression of their tumor” value came to 8%.

As to `O=P1(N(CCCl)CCCl)NCCCO1` (centres unmarked) [cyclophosphamide], the “average time to tumor recurrence” value in the data set on Myc/p53ER^TAM lymphomas [5] (cyclophosphamide 50 mg/kg IP once followed by daily PBS) is 5.25 ± 1.9 days. Besides, the tumor regression entry in the data set with Myc/p53ER^TAM lymphomas [5] (single dose cyclophosphamide 50 mg/kg IP with or without CQ) was “complete tumor regression in all treated mice”.

For the compound `CCN(CC)CCCC(C)Nc1ccnc2cc(Cl)ccc12` (centres unmarked) [CQ, chloroquine], in [1], the “punctate GFP-LC3 fluorescence” value is recorded as “Some punctate GFP-LC3 fluorescence”. In [6], the IC50 came to 3 µM. Besides, the “additional toxicity in treated animals” value in data set [7] (CQ cotreatment with TAM or with cyclophosphamide) is given as “did not result in additional toxicity”. The observed toxicity result in [7] (daily IP 50 mg/kg/day or 60 mg/kg/day) was “no observed toxicity”. In data set [7] (for up to 20 days), the “tolerability of systemic administration” value was “well tolerated”. Moreover, the ATP levels result in the data set with Bax^−/−Bak^−/− cells [2] was “dramatic decline in ATP levels”. Further, the tumor regression result in the data set on Myc/p53ER^TAM lymphomas [5] (CQ 50 or 60 mg/kg/day IP daily, single agent) was “not observed”. For the same compound, the “average time to tumor recurrence” value in the data set with Myc/p53ER^TAM lymphomas [5] (cyclophosphamide 50 mg/kg IP once followed by daily CQ 60 mg/kg/day IP for 13 days) stood at 12.5 ± 6.6 days. Moreover, in the data set on Bax^−/−Bak^−/− cells [3], the “effect on survival of cells grown in the presence of IL-3” value is reported as “no significant effect” and the “death of the cells in the cultures” value is 82%. The “number of autophagosomes (LC3 redistribution from punctate to diffuse staining)” value with LC3 is listed as “reduction in the number of autophagosomes”.
